In patent US20260355357A1, “DIAGNOSTIC AGENTS AND USES THEREOF” (HADASIT MEDICAL RESEARCH SERVICES AND DEVELOPMENT LTD., priority 2023, published 2026):

Key:
[1] = Biodistribution of deuterated 2-deoxy-D-glucose, 2H-NMR of tissue extracts, mice; format: in vivo, mouse; conditions: [D4]DDG bolus i.v., 43-45 mg/kg (non-labeled 2DG equivalent)
Experimental: (§1) Mice and rats, males and females at equal numbers, were intravenously injected with a bolus of varying doses of deuterated 2-deoxy-D-glucose (2-DG, DDG, with varying numbers and positions of deuteration). DDGs were provided by CortecNet, France. The injection was performed under sedation in all rats (18) and in 12 of 18 mice, after which the animals woke up within 1 minute. […] Further to euthanasia, the brain, liver, kidneys, heart, and muscle were excised and immediately placed in liquid nitrogen. The frozen tissue samples were kept at −80 °C until further processing.
(§2) Extraction of the water-soluble metabolites and the lipids was carried out using the dual-phase extraction procedure as described previously [Katz-Brull R, et al. Differential routing of choline in implanted breast cancer and normal organs. Article. Magnetic Resonance in Medicine. July 2001; 46(1):31-38. doi:10.1002/mrm.1157]. Briefly, a frozen sample is placed in 10 mL of ice-cold methanol containing 0.4 mM phenyl phosphonic acid for at least 1 hour. The tissue is then homogenized in ice-cold methanol using a tissue homogenizer. Equal volumes of chloroform and water are then added to the sample tube, and the mixture is vortexed and vigorously shaken. The samples are allowed to stand at 4 °C for at least 24 hours for phase separation. The methanol-water phase is aspirated, treated with Chelex to remove divalent ions, and then lyophilized for at least 24 hours. When the samples are dry (as powder), they are redissolved in 0.5 mL of double-distilled water and transferred to 5-mm NMR tubes for scanning. The samples are scanned in a 9.4 T NMR spectrometer.

[2] = Biodistribution of deuterated 2-deoxy-D-glucose, 2H-NMR of tissue extracts, rats; format: in vivo, rat; conditions: for concentration: [D4]DDG bolus i.v., 37-55 mg/kg (non-labeled 2DG equivalent)
Experimental: as §1, §2

[3] = Adverse effects after bolus intravenous injection of DDG, mice; format: in vivo, mouse; conditions: bolus i.v., 37 mg/kg to 248 mg/kg (mice and rats), awake up to 78 min
Experimental: as §1
(§3) The animals were observed awake for up to 78 min after the injection. The injection bolus was administered in less than 1 s and ranged from 0.1 mL for mice (ca. 25-40 g) to 0.6 mL for rats (ca. 120-160 g).

[4] = Adverse effects after bolus intravenous injection of DDG, rats; format: in vivo, rat; conditions: bolus i.v., 37 mg/kg to 248 mg/kg (mice and rats), awake up to 78 min
Experimental: as §1, §3

human brain = conditions: in vivo; cited from earlier work
[5] = n=2, read-out: concentration in the heart

| SMILES | concentration ([1]; n=1, read-out: concentration in the kidneys) [µM] | concentration [1, 5] [µM] | concentration ([1]; n=2, read-out: concentration in the liver) [µM] | 2H-NMR signal in rat brain extract ([2]; FIG. 7, 45 mg/kg, awake 36 min, 9.4 T) | 2H-NMR signal in rat brain extract ([2]; FIG. 7 legend, awake 30 min) | concentration [2, 5] [µM] | concentration ([2]; n=6, read-out: concentration in the brain) [µM] | concentration ([2]; n=6, read-out: concentration in the muscle) [µM] | adverse effects [3] | adverse effects [4] | accumulation in the human brain (human brain) |
| --- | --- | --- | --- | --- | --- | --- | --- | --- | --- | --- | --- |
| [2H]C([2H])(O)[C@H]1OC(O)C[C@@]([2H])(O)[C@]1([2H])O (stereo partly drawn) [[D4]DDG, [3,4,6,6-D4]2-deoxy-D-glucose] | 1790 | 3140 | 230 | due to the deuterons of [D4]DDG | the right signal (full arrow) is of deuterons of [3,4,6,6-D4]2-deoxy-D-glucose | 2700 | 1600 | 80 | no adverse effects | no adverse effects | – |
| OC[C@H]1OC(O)[C@H](F)[C@@H](O)[C@@H]1O (stereo partly drawn) [[18F]-fluoro-2-deoxy-D-glucose] | – | – | – | – | – | – | – | – | – | – | accumulates at very high levels in the human brain |
